According to the NIST ThermoML archive (doi:10.1016/j.tca.2013.01.028):
Numbers after ± are expanded uncertainties.

Test: excess molar enthalpy (molar enthalpy of mixing); xn = mol fraction of the nth substance listed
Conditions: 303.15 K, 101 kPa, Liquid, Calvet calorimetry

SMILES | excess molar enthalpy (x1 = 0.2481) [kcal/mol] | excess molar enthalpy (x1 = 0.5) [kcal/mol] | excess molar enthalpy (x1 = 0.7576) [kcal/mol] | excess molar enthalpy (x2 = 0.247) [kcal/mol] | excess molar enthalpy (x2 = 0.4944) [kcal/mol] | excess molar enthalpy (x2 = 0.7685) [kcal/mol]
c1ccccc1 [benzene] + CCCCCCC | 0.145 ± 0.00167 | 0.221 ± 0.00239 | 0.186 ± 0.0021 |  |  | 
c1ccccc1 [benzene] + Cc1ccccc1 |  |  |  | 0.013 ± 0.000359 | 0.017 ± 0.000406 | 0.0114 ± 0.000359
